Measured values as given in publication PMC8878452, “A Tale of Toxin Promiscuity: The Versatile Pharmacological Effects of Hcr 1b-2 Sea Anemone Peptide on Voltage-Gated Ion Channels” (Marine Drugs, 2022).
“Also recorded” adds a separate entry of the source. Bridges are numbered along the chain shown (N, C = ends). Where no end group is shown, it is not given here.

Columns and labels:
rKv4.2 = assay: TEVC, Kv4.2 in Xenopus oocytes; format: cell-based, rat; conditions: 1 µM, ND96 pH 7.4, 18–22 °C, n ≥ 3
Description: (§1) For the expression of Kv channels (rKv1.1, rKv1.2, rKv1.3, rKv1.4, rK1.5, rKv1.6, hKv2.1, hKv3.1, rKv4.2, hKv7.1, hKv7.2/7.3, hKv7.4, KQT1 (from the roundworm Caenorhabditis elegans), hKv10.1 (hEAG1), hKv11.1 (hERG1), and Shaker, from Drosophila melanogaster), Nav channels (rNav1.1, rNav1.2, rNav1.3, rNav1.4, hNav1.5, mNav1.6, hNav1.7, hNav1.8, and BgNav (from the cockroach Blattella germanica), as well as the hβ1 and rβ1 subunits, and Cav channels (rCav3.1, hCav3.2, and rCav3.3) in Xenopus oocytes, the linearized plasmids were transcribed using the T7 or SP6 mMESSAGEmMACHINE transcription kit (Ambion, Austin, TX, USA). Mature female animals were purchased from Nasco (Fort Atkinson, WI, USA) and were housed in the Aquatic Facility (KU Leuven) in compliance with the regulations of the European Union (EU) concerning the welfare of laboratory animals as declared in Directive 2010/63/EU. The use of X. laevis oocytes was approved by the Animal Ethics Committee of the KU Leuven, with the license number P186/2019. […]
(§2) Whole-cell currents of oocytes were recorded 1 to 3 days after RNA injection. […] The current–voltage relationships were determined by 50 ms step depolarizations between −90 and +65 mV using 5 or 10 mV increments. All electrophysiological data were analyzed following the procedures described by Peigneur et al., 2012 [20].
(§3) All values were expressed as means ± SEM. […]

rNav1.3 = assay: TEVC, Nav1.3 in Xenopus oocytes; format: cell-based, rat
Description: (§4) For the expression of Kv channels (rKv1.1, rKv1.2, rKv1.3, rKv1.4, rK1.5, rKv1.6, hKv2.1, hKv3.1, rKv4.2, hKv7.1, hKv7.2/7.3, hKv7.4, KQT1 (from the roundworm Caenorhabditis elegans), hKv10.1 (hEAG1), hKv11.1 (hERG1), and Shaker, from Drosophila melanogaster), Nav channels (rNav1.1, rNav1.2, rNav1.3, rNav1.4, hNav1.5, mNav1.6, hNav1.7, hNav1.8, and BgNav (from the cockroach Blattella germanica), as well as the hβ1 and rβ1 subunits, and Cav channels (rCav3.1, hCav3.2, and rCav3.3) in Xenopus oocytes, the linearized plasmids were transcribed using the T7 or SP6 mMESSAGEmMACHINE transcription kit (Ambion, Austin, TX, USA). Mature female animals were purchased from Nasco (Fort Atkinson, WI, USA) and were housed in the Aquatic Facility (KU Leuven) in compliance with the regulations of the European Union (EU) concerning the welfare of laboratory animals as declared in Directive 2010/63/EU. The use of X. laevis oocytes was approved by the Animal Ethics Committee of the KU Leuven, with the license number P186/2019.
(§5) Stage V–VI oocytes were collected from anesthetized female X. laevis frog as previously described, with the frogs anesthetized by placement in a 0.1% tricaine solution (amino benzoic acid ethyl ester; Merck, Kenilworth, NJ, USA). Oocyte microinjection was performed using a microinjector (Drummond Scientifc®, Broomall, PA, USA), with a programmed cRNA injection volume of 4–50 nL, depending on channel subtype. The oocytes were incubated in ND96 solution (96 mM NaCl; 2 mM KCl; 1.8 mM CaCl2; 2 mM MgCl2, and 5 mM HEPES, pH 7.4), supplemented with 50 mg/L of gentamicin sulfate.
(§6) Electrophysiological measurements were performed at room temperature (18–22 °C) using the two-electrode voltage-clamp (TEVC) technique. Data were obtained using a GeneClamp 500 amplifier (Axon Instruments®, Burlingame, CA, USA) and Clampex9 software (Axon Instruments®, USA) was responsible for data acquisition and storage. Glass micropipettes were produced using glass capillaries (borosilicate WPI 1B120-6) and drawn in a WPI (World Precision Instruments®, Sarasota, FL, USA) manual stretcher. The bath and perfusion solutions were either the previously described ND96 (Nav and Kv channels) or calcium-free ND96 supplemented with 10 mM BaCl2 (Cav channels).
(§7) Whole-cell currents of oocytes were recorded 1 to 3 days after RNA injection. The current and voltage electrodes were filled with 3 M KCl, and their resistance was adjusted from 1.0 to 2.5 MΩ. Currents were sampled at 20 kHz (Nav channels) and 10 kHz (Kv and Cav channels) and filtered using a four-pole Bessel low-pass Bessel filter at 1 kHz for sodium and […] for potassium and calcium, except for the hERG ion channel in which the currents were filtered at 1 kHz. Leak subtraction was performed using a P/4 protocol. Kv1.x currents were evoked by 500 ms depolarizations to 0 mV, followed by a 500 ms pulse to −50 mV from a holding potential of −90 mV. Kv2.1, Kv3.1, Kv4.2, Kv7.x, and KQT1 currents were elicited by 700 ms pulses to +20 mV from a holding potential of −90 mV. Current traces of the hERG1 channel were elicited by applying a +40 mV prepulse for 2 s, followed by a step of −120 mV for 2 s. […] The current–voltage relationships were determined by 50 ms step depolarizations between −90 and +65 mV using 5 or 10 mV increments. All electrophysiological data were analyzed following the procedures described by Peigneur et al., 2012 [20].
as §3

hKv3.1 = assay: TEVC, Kv3.1 in Xenopus oocytes; format: cell-based, human; conditions: 1 µM, ND96 pH 7.4, 18–22 °C, n ≥ 3
Description: as §1, §2, §3

BgNav = assay: TEVC, BgNav in Xenopus oocytes; format: cell-based, Blattella germanica
Description: as §4, §5, §6, §7, §3

hNav1.7 = assay: TEVC, Nav1.7 in Xenopus oocytes; format: cell-based, human
Description: as §4, §5, §6
Whole-cell currents of oocytes were recorded 1 to 3 days after RNA injection. The current and voltage electrodes were filled with 3 M KCl, and their resistance was adjusted from 1.0 to 2.5 MΩ. Currents were sampled at 20 kHz (Nav channels) and 10 kHz (Kv and Cav channels) and filtered using a four-pole Bessel low-pass Bessel filter at 1 kHz for sodium and […] for potassium and calcium, except for the hERG ion channel in which the currents were filtered at 1 kHz. Leak subtraction was performed using a P/4 protocol. Kv1.x currents were evoked by 500 ms depolarizations to 0 mV, followed by a 500 ms pulse to −50 mV from a holding potential of −90 mV. Kv2.1, Kv3.1, Kv4.2, Kv7.x, and KQT1 currents were elicited by 700 ms pulses to +20 mV from a holding potential of −90 mV. Current traces of the hERG1 channel were elicited by applying a +40 mV prepulse for 2 s, followed by a step of −120 mV for 2 s. Current traces of hEAG1 were elicited by a 2 s depolarization to 0 mV from a holding potential of −90 mV. Sodium current traces were evoked by a 100 ms depolarization to 0 mV. For Cav channels, current traces were elicited by 700 ms depolarizations to −20 mV from a holding potential of −90 mV. The current–voltage relationships were determined by 50 ms step depolarizations between −90 and +65 mV using 5 or 10 mV increments. All electrophysiological data were analyzed following the procedures described by Peigneur et al., 2012 [20].
All values were expressed as means ± SEM. Differences in ionic currents between the control and toxin conditions were compared by a one-way ANOVA, followed by Dunnett’s multiple comparisons test. Differences were considered statistically significant when […].

hKv7.2/7.3 = assay: TEVC, Kv7.2/7.3 in Xenopus oocytes; format: cell-based, human
Description: as §4, §5, §6
as §2, with “injection. The current and voltage electrodes were filled with 3 M KCl, and their resistance was adjusted from 1.0 to 2.5 MΩ.” for “injection.”
as §3

hKv7.4 = assay: TEVC, Kv7.4 in Xenopus oocytes; format: cell-based, human
Description: as §4, §5, §6
as §2, with “injection. The current and voltage electrodes were filled with 3 M KCl, and their resistance was adjusted from 1.0 to 2.5 MΩ.” for “injection.”
as §3

hKv10.1 (hEAG1) = assay: TEVC, Kv10.1 in Xenopus oocytes; format: cell-based, human; conditions: 1 µM, ND96 pH 7.4, 18–22 °C, n ≥ 3
Description: as §1, §2, §3

Kv1.5 = assay: TEVC, Kv1.5 in Xenopus oocytes; format: cell-based, rat; conditions: 1 µM, n ≥ 3
Description: as §1, §2, §3

tested animals = conditions: cited from earlier work
Procedure: Recently, the Hcr 1b-2 sequence was determined, together with two other peptides, named Hcr1b-3 and Hcr1b-4, which share 97.6% and 78.0% of sequence identity, respectively (Figure 1).

[1] = 1 µM, 100 ms depolarization to 0 mV, mean ± SEM, n ≥ 3
[2] = 1 µM, TEVC, ND96 pH 7.4, 18–22 °C, n ≥ 3

GTPCKCHGYIGVYWFMLAGCPNGYGYNLSCPYFLGICCVKK (disulfide 4-37, 6-30, 20-38 (inferred)) [Hcr 1b-2]
effect on potassium current, Kv4.2 (rKv4.2): inhibition | Shift in Vhalf activation, Nav1.3 (rNav1.3; 1 µM vs control (ND96)): 5.3 mV | Shift in Vhalf inactivation, Nav1.3 (rNav1.3; 1 µM vs control (ND96)): −3.4 mV | inhibition of peak amplitude (INa), Nav1.3 (rNav1.3; [1]): 11.2 ± 1.8% | Vhalf activation, Nav1.3 (rNav1.3; 1 µM, control (ND96) −21.2 ± 0.1, mean ± SEM, n ≥ 3): −15.9 ± 0.1 mV | Vhalf inactivation, Nav1.3 (rNav1.3; 1 µM, control (ND96) −29.9 ± 0.1, mean ± SEM, n ≥ 3): −33.3 ± 0.1 mV | effect on potassium current, Kv3.1 (hKv3.1): not active | Shift in Vhalf activation, BgNav (BgNav; 1 µM vs control (ND96)): 1.9 mV | Shift in Vhalf inactivation, BgNav (BgNav; 1 µM vs control (ND96)): −5.0 mV | reduction of peak amplitude (INa) / inhibition, BgNav (BgNav; [1]): 17.7 ± 1.2% | Vhalf activation, BgNav (BgNav; 1 µM, control (ND96) −29.0 ± 0.1, mean ± SEM, n ≥ 3): −27.1 ± 0.1 mV | Vhalf inactivation, BgNav (BgNav; 1 µM, control (ND96) −47.9 ± 0.3, mean ± SEM, n ≥ 3): −52.9 ± 0.3 mV | effect on activation or inactivation, Nav1.7 (hNav1.7; 1 µM): no significant effect | Shift in Vhalf activation, Nav1.7 (hNav1.7; 1 µM vs control (ND96)): −2.8 mV | Shift in Vhalf inactivation, Nav1.7 (hNav1.7; 1 µM vs control (ND96)): −0.5 mV | reduction of peak amplitude (INa) / inhibition, Nav1.7 (hNav1.7; [1]): 38.7 ± 1.8% | Vhalf activation, Nav1.7 (hNav1.7; 1 µM, control (ND96) −26.9 ± 0.1, mean ± SEM, n ≥ 3): −29.7 ± 0.1 mV | Vhalf inactivation, Nav1.7 (hNav1.7; 1 µM, control (ND96) −38.1 ± 0.3, mean ± SEM, n ≥ 3): −38.6 ± 0.4 mV | gating-modifier effect (voltage-current relationship), Kv7.2/7.3 (hKv7.2/7.3; 1 µM): non-significant gating-modifier effect | Shift in Vhalf activation, Kv7.2/7.3 (hKv7.2/7.3; 1 µM vs control (ND96)): 1.3 mV | effect on potassium current, Kv7.2/7.3 (hKv7.2/7.3; [2]): inhibition; also recorded: inhibits | Vhalf activation, Kv7.2/7.3 (hKv7.2/7.3; 1 µM, control (ND96) 14.6 ± 0.5, mean ± SEM): 15.9 ± 0.7 mV | gating-modifier effect (voltage-current relationship), Kv7.4 (hKv7.4; 1 µM): stronger shift | Shift in Vhalf activation, Kv7.4 (hKv7.4; 1 µM vs control (ND96)): 7.1 mV | effect on potassium current, Kv7.4 (hKv7.4; [2]): inhibition; also recorded: inhibits | Vhalf activation, Kv7.4 (hKv7.4; 1 µM, control (ND96) 3.8 ± 0.3, mean ± SEM): 10.9 ± 0.3 mV | effect on potassium current, Kv10.1 (hKv10.1 (hEAG1)): not active | activity (inhibition of current), Kv1.5 (Kv1.5; 500 ms depolarization to 0 mV from −90 mV, mean ± SEM): 41.9 ± 4.7% | effect on potassium current, Kv1.5 (Kv1.5; TEVC, ND96 pH 7.4, 18–22 °C): inhibition | signs of neurotoxicity or changes in behavior (tested animals): None of these three peptides showed signs of neurotoxicity or changes in the behavior
